Data taken from ChEMBL document CHEMBL1156451 (J Biol Chem, 2007).
In brackets after ≈: the same amount, converted by molar mass. Activity calls are given as the source filed them. The rule behind the calls is not given here. Where a SMILES comes first, the peptide text is derived from it.

What was measured:
Escherichia coli [1] = test: Antibacterial activity against Escherichia coli ATCC 25922 after 24 hrs in Mueller-Hinton broth medium; assay type: functional; settings: ATCC 25922, 24 h
HeLa [2] = test: Cytotoxicity against human HeLa cells at 100 ug/ml after 24 hrs by neutral red uptake assay relative to control; assay type: functional
[3] = Toxicity in human erythrocytes assessed as hemolysis; assay type: cell-based; settings: erythrocyte
Brucella abortus [4] = test: Antibacterial activity against Brucella abortus 9.19 (per-) after 24 hrs in Mueller-Hinton broth medium; assay type: functional
Pseudomonas aeruginosa = test: Antibacterial activity against Pseudomonas aeruginosa CUN 4158-02 after 24 hrs in Mueller-Hinton broth medium; assay type: functional
Brucella abortus [5] = test: Antibacterial activity against Brucella abortus 9.49 (per-) after 48 hrs in Mueller-Hinton broth medium; assay type: functional
[6] = tested on: Bordetella bronchiseptica; test: Antibacterial activity against Bordetella bronchiseptica CUN 11844-99 after 24 hrs in Mueller-Hinton broth medium; assay type: functional
Escherichia coli [7] = test: Effect on morphology in Escherichia coli K12 ATCC 23716 assessed as detachment of outer membrane from inner membrane at 4 uM after 30 mins by transmission electron microscopy; assay type: functional, organism-based
Escherichia coli [8] = test: Effect on morphology in Escherichia coli K12 ATCC 23716 assessed as formation of high electrodense clusters at 20 uM after 30 mins by transmission electron microscopy; assay type: functional, organism-based
Acinetobacter baumannii = test: Antibacterial activity against Acinetobacter baumannii ATCC 19606 after 24 hrs in Mueller-Hinton broth medium; assay type: functional; settings: ATCC 19606, 24 h
Staphylococcus aureus = test: Antibacterial activity against methicillin-resistant Staphylococcus aureus ATCC 43300 after 24 hrs in Mueller-Hinton broth medium; assay type: functional; settings: ATCC 43300, 24 h
Escherichia coli [9] = test: Antibacterial activity against Escherichia coli K12 ATCC 23716 in 10% Luria-Bertani medium/90% Hepes buffer at pH 7.0; assay type: functional
HeLa [10] = test: Cytotoxicity against human HeLa cells at 100 ug/ml after 24 hrs by MTT assay relative to control; assay type: functional
Escherichia coli [11] = test: Antibacterial activity against Escherichia coli K12 ATCC 23716 after 24 hrs in Mueller-Hinton broth medium; assay type: functional; settings: K12, 24 h

CC[C@H](C)[C@H](NC(=O)[C@H](CCCNC(=N)N)NC(=O)[C@H](CCCNC(=N)N)NC(=O)[C@H](CC(C)C)NC(=O)[C@H](Cc1ccccc1)NC(=O)[C@@H](NC(=O)[C@H](CCCNC(=N)N)NC(=O)[C@H](CCSC)NC(=O)[C@@H](NC(=O)[C@H](CCCCN)NC(=O)[C@H](CCCCN)NC(=O)[C@H](CS)NC(=O)[C@@H](NC(=O)CNC(=O)[C@H](CCCNC(=N)N)NC(=O)[C@H](CC(C)C)NC(=O)[C@@H](NC(=O)[C@@H](N)CCCCN)[C@@H](C)CC)C(C)C)[C@@H](C)CC)[C@@H](C)O)C(=O)N[C@@H](CO)C(=O)N[C@@H](CCCCN)C(=O)N[C@@H](CC(=O)O)C(=O)N[C@H](C(=O)N[C@@H](CC(C)C)C(=O)N[C@H](C(=O)NCC(=O)N[C@@H](CCCCN)C(=O)N[C@@H](CCCCN)C(=O)O)[C@@H](C)O)[C@@H](C)CC (H-KILRGVCKKIMRTFLRRISKDILTGKK-OH)
MBC (Escherichia coli [1]): 16 µg/mL (≈ 5 µM)
MIC (Escherichia coli [1]): 16 µg/mL (≈ 5 µM)
Activity (HeLa [2]): 31.6%
Activity [3]: Toxic
MBC (Brucella abortus [4]): 32 µg/mL (≈ 9.99 µM)
MBC (Pseudomonas aeruginosa): 32 µg/mL (≈ 9.99 µM)
MIC (Pseudomonas aeruginosa): 32 µg/mL (≈ 9.99 µM)
MIC (Brucella abortus [5]): 32 µg/mL (≈ 9.99 µM)
MBC [6]: 4 µg/mL (≈ 1.25 µM)
MIC [6]: 4 µg/mL (≈ 1.25 µM)
Activity (Escherichia coli [7]): Active
Activity (Escherichia coli [8]): Active
MBC (Acinetobacter baumannii): 2 µg/mL (≈ 0.624 µM)
MIC (Acinetobacter baumannii): 2 µg/mL (≈ 0.624 µM)
MBC (Staphylococcus aureus): 256 µg/mL (≈ 79.9 µM)
MIC (Staphylococcus aureus): 256 µg/mL (≈ 79.9 µM)
MBC (Escherichia coli [9]): 32 µg/mL (≈ 9.99 µM)
MIC (Escherichia coli [9]): 16 µg/mL (≈ 5 µM)
Activity (HeLa [10]): 28.7%
MBC (Escherichia coli [11]): 0.25 µg/mL (≈ 0.078 µM)
MIC (Escherichia coli [11]): 0.25 µg/mL (≈ 0.078 µM)

CC[C@H](C)[C@H](NC(=O)[C@H](CCCCN)NC(=O)[C@H](CCCCN)NC(=O)[C@H](CO)NC(=O)[C@@H](NC(=O)CNC(=O)[C@H](CCCNC(=N)N)NC(=O)[C@H](CC(C)C)NC(=O)[C@@H](NC(=O)[C@@H](N)CCCCN)[C@@H](C)CC)C(C)C)C(=O)N[C@@H](CCSC)C(=O)N[C@@H](CCCNC(=N)N)C(=O)N[C@H](C(=O)N[C@@H](Cc1ccccc1)C(=O)N[C@@H](CC(C)C)C(=O)N[C@@H](CCCNC(=N)N)C(=O)N[C@@H](CCCNC(=N)N)C(=O)N[C@H](C(=O)N[C@@H](CC(C)C)C(=O)N[C@H](C(=O)NCC(=O)N[C@@H](CCCCN)C(=O)N[C@@H](CCCCN)C(N)=O)[C@@H](C)O)[C@@H](C)CC)[C@@H](C)O (H-KILRGVSKKIMRTFLRRILTGKK-NH2)
MBC (Escherichia coli [1]): 4 µg/mL (≈ 1.46 µM)
MIC (Escherichia coli [1]): 4 µg/mL (≈ 1.46 µM)
Activity [3]: Toxic
MBC (Brucella abortus [4]): 4 µg/mL (≈ 1.46 µM)
MBC (Pseudomonas aeruginosa): 4 µg/mL (≈ 1.46 µM)
MIC (Pseudomonas aeruginosa): 4 µg/mL (≈ 1.46 µM)
MIC (Brucella abortus [5]): 4 µg/mL (≈ 1.46 µM)
MBC [6]: 2 µg/mL (≈ 0.729 µM)
MIC [6]: 2 µg/mL (≈ 0.729 µM)
MBC (Acinetobacter baumannii): 4 µg/mL (≈ 1.46 µM)
MIC (Acinetobacter baumannii): 4 µg/mL (≈ 1.46 µM)
MBC (Staphylococcus aureus): 256 µg/mL (≈ 93.3 µM)
MIC (Staphylococcus aureus): 64 µg/mL (≈ 23.3 µM)
MBC (Escherichia coli [9]): 25 µg/mL (≈ 9.12 µM)
MIC (Escherichia coli [9]): 19 µg/mL (≈ 6.93 µM)
Activity (HeLa [10]): inactive
MBC (Escherichia coli [11]): 8 µg/mL (≈ 2.92 µM)
MIC (Escherichia coli [11]): 8 µg/mL (≈ 2.92 µM)

CC[C@H](C)[C@H](NC(=O)[C@H](CCCNC(=N)N)NC(=O)[C@H](CCCNC(=N)N)NC(=O)[C@H](CC(C)C)NC(=O)[C@H](Cc1ccccc1)NC(=O)[C@@H](NC(=O)[C@H](CCCNC(=N)N)NC(=O)[C@H](CCSC)NC(=O)[C@@H](NC(=O)[C@H](CCCCN)NC(=O)[C@H](CCCCN)NC(=O)[C@H](CO)NC(=O)[C@@H](NC(=O)CNC(=O)[C@H](CCCNC(=N)N)NC(=O)[C@H](CC(C)C)NC(=O)[C@@H](NC(=O)[C@@H](N)CCCCN)[C@@H](C)CC)C(C)C)[C@@H](C)CC)[C@@H](C)O)C(=O)N[C@@H](CO)C(=O)N[C@@H](CCCCN)C(=O)N[C@@H](CC(=O)O)C(=O)N[C@H](C(=O)N[C@@H](CC(C)C)C(=O)N[C@H](C(=O)NCC(=O)N[C@@H](CCCCN)C(=O)N[C@@H](CCCCN)C(N)=O)[C@@H](C)O)[C@@H](C)CC (H-KILRGVSKKIMRTFLRRISKDILTGKK-NH2)
MBC (Escherichia coli [1]): 4 µg/mL (≈ 1.26 µM)
MIC (Escherichia coli [1]): 4 µg/mL (≈ 1.26 µM)
Activity (HeLa [2]): 24.8%
Activity [3]: Toxic
MBC (Brucella abortus [4]): 4 µg/mL (≈ 1.26 µM)
MBC (Pseudomonas aeruginosa): 4 µg/mL (≈ 1.26 µM)
MIC (Pseudomonas aeruginosa): 4 µg/mL (≈ 1.26 µM)
MIC (Brucella abortus [5]): 2 µg/mL (≈ 0.628 µM)
MBC [6]: 4 µg/mL (≈ 1.26 µM)
MIC [6]: 4 µg/mL (≈ 1.26 µM)
MBC (Acinetobacter baumannii): 2 µg/mL (≈ 0.628 µM)
MIC (Acinetobacter baumannii): 2 µg/mL (≈ 0.628 µM)
MBC (Staphylococcus aureus): 128 µg/mL (≈ 40.2 µM)
MIC (Staphylococcus aureus): 128 µg/mL (≈ 40.2 µM)
MBC (Escherichia coli [9]): 16 µg/mL (≈ 5.02 µM)
MIC (Escherichia coli [9]): 8 µg/mL (≈ 2.51 µM)
Activity (HeLa [10]): 38.4%
MBC (Escherichia coli [11]): 2 µg/mL (≈ 0.628 µM)
MIC (Escherichia coli [11]): 2 µg/mL (≈ 0.628 µM)
